Read-outs that look alike come from different tables or passages of the source.
Columns and labels:
[1] = target: NEK7 (Homo sapiens (Human), UniProt Q8TDX7+Q96SW2); assay: NEK7 NanoBiT degradation assay in Cal51 NEK7 NanoBiT cell line; format: cell-based; conditions: Cal51 NEK7 NanoBiT cells, 24 hours; for Dmax: CAL-51
Outline: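 EC50 comes from a 4-parameter fit of control-normalized luminescence. The luminescence reports HiBiT-NEK7 (endogenous knock-in) complemented by stably expressed LgBiT in Cal51 cells after 24 h compound exposure at 37 °C. Final concentrations ran 1 μM to 0.05 nM, with Endurazine substrate present in the medium throughout.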

[2] = target: CRBN-DDB1 (Homo sapiens (Human), UniProt Q96SW2); assay: Compound binding to CRBN by HTRF assay
Sequence of CRBN-DDB1 (Q96SW2 whole entry): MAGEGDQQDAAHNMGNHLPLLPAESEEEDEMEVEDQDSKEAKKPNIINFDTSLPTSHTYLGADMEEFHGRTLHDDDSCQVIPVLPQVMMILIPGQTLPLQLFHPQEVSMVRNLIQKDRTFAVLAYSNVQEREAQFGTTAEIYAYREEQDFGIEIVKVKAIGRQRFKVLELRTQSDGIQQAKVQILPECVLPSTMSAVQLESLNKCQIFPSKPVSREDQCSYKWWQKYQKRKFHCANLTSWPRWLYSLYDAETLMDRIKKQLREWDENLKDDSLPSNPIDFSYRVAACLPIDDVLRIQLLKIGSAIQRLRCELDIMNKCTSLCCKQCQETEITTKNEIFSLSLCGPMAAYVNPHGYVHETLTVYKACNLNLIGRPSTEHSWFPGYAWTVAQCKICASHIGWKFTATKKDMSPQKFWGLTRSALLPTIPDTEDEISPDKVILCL
Sequence of CRBN-DDB1 (Q16531 whole entry partner): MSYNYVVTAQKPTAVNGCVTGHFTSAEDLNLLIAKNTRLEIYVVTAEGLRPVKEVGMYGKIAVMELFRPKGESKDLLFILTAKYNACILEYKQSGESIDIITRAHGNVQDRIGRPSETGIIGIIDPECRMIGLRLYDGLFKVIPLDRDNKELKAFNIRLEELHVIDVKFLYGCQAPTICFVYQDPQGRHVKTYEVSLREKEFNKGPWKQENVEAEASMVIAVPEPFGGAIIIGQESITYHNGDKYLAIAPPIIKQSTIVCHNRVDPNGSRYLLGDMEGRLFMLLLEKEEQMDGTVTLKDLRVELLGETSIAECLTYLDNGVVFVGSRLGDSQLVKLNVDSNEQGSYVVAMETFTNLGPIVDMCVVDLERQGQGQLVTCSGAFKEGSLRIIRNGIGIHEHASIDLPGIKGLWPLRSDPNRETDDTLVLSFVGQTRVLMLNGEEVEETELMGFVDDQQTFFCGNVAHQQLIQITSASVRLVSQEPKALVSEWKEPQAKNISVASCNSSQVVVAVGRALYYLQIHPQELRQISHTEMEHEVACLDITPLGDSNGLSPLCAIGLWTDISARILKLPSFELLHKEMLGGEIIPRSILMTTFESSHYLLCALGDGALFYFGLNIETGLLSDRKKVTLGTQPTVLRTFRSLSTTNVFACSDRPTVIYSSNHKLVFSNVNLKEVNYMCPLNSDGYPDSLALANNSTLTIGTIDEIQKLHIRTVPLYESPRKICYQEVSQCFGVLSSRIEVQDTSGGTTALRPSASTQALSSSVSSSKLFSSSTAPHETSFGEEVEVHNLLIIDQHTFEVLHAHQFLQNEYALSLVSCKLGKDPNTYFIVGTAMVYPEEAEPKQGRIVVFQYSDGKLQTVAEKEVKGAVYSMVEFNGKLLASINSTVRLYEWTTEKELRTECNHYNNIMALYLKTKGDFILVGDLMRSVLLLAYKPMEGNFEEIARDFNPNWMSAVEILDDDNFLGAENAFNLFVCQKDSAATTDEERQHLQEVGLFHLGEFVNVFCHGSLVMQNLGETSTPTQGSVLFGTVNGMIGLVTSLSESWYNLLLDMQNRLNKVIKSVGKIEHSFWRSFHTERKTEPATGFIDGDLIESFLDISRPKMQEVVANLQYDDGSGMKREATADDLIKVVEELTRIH
Outline: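 Ki calculated via Cheng-Prusoff from geometric-mean EC50 values, after normalizing the HTRF ratio to lenalidomide (active) and DMSO (neutral) controls. Compounds (11 points, 1:3 steps) incubated 30 min at ambient temperature with CRBN-DDB1 2.5 nM, anti-His Tb cryptate and Cy5-thalidomide tracer 100 nM.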

[3] = NEK7 degradation, read-out: NanoBiT Dmax
[4] = NEK7 degradation, read-out: NanoBiT DC50

Sequence of NEK7 (Q8TDX7 whole entry): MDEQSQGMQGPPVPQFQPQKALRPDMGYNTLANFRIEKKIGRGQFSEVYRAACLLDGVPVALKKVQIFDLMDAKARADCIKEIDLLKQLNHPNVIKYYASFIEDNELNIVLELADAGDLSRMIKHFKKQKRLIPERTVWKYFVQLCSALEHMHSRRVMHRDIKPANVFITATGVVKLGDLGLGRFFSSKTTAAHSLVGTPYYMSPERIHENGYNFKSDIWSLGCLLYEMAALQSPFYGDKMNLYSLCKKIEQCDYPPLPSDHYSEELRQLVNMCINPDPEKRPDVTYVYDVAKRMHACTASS
Sequence of NEK7 (Q96SW2 whole entry): as the sequence (Q96SW2 whole entry) above
Sequence of NEK7 (Q16531 2-1140 partner): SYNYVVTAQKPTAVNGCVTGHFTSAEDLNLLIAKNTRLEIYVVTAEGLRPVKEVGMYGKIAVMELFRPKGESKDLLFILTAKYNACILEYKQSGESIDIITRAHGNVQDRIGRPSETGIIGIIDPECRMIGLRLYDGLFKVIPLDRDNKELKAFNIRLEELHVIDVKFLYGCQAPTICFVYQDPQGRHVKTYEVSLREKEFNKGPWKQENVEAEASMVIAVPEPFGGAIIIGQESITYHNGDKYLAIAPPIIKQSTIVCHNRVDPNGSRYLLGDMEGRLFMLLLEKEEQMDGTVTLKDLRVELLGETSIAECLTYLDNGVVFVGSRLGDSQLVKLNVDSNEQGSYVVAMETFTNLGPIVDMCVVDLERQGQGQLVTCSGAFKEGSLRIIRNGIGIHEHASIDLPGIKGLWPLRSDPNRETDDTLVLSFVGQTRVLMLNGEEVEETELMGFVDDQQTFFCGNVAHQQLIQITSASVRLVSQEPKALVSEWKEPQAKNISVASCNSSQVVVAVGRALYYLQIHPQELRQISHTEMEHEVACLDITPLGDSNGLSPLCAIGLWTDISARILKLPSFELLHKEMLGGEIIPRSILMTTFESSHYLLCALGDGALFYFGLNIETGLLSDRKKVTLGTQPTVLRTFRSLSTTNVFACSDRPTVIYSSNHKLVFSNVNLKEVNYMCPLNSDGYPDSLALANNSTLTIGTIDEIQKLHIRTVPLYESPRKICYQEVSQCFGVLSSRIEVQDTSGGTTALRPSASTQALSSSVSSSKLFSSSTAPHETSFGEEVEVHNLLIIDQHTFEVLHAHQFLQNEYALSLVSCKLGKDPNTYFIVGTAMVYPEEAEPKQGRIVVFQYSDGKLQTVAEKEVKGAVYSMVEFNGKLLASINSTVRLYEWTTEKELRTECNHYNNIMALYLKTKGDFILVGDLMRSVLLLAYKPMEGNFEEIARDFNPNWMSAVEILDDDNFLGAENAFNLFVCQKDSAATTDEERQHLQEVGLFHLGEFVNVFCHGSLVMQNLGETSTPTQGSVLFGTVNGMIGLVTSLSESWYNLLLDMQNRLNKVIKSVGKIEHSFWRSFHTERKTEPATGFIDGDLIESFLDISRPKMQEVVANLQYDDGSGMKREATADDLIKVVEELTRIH

## CC(C)(O)c1cnc(C(C)(C)C(=O)NCc2cc(Cl)c(C3CCC(=O)NC3=O)c(Cl)c2)cn1 (stereo not drawn) [Compound 238, N-(3,5-dichloro-4-(2,6-dioxopiperidin-3-yl)benzyl)-2-(5-(2-hydroxypropan-2-yl)pyrazin-2-yl)-2-methylpropanamide]
[1]; read-out: NEK7 NanoBiT Dmax
  Dmax: 63%
[1]; [3]
  Dmax: 50 to 75%
[1]; read-out: NEK7 NanoBiT DC50
  DC50: 153 nM
[1]; [4]
  DC50: 100 to 1000 nM
[2]
  EC50: 170 nM
[2]; HTRF class, Cereblon binding
  EC50: 100 to 1000 nM

## Cc1cc(C(C)(C)C(=O)NCc2cc(Cl)c(C3CCC(=O)NC3=O)c(Cl)c2)cc(C)n1 (stereo not drawn) [Compound 86]
[1]; read-out: NEK7 NanoBiT Dmax
  Dmax: 85%
[1]; [3]
  Dmax: > 75%
[1]; read-out: NEK7 NanoBiT DC50
  DC50: 21 nM
[1]; [4]
  DC50: ≤ 100 nM
[2]
  EC50: 160 nM
[2]; HTRF class, Cereblon binding
  EC50: 100 to 1000 nM

## CC(C)(C(=O)NCc1cc(Cl)c([C@H]2CCC(=O)NC2=O)c(Cl)c1)c1ncccn1 (single isomer, unassigned) [Compound 180]
[1]; read-out: NEK7 NanoBiT Dmax
  Dmax: 81%
[1]; [3]
  Dmax: > 75%
[1]; read-out: NEK7 NanoBiT DC50
  DC50: 16 nM
[1]; [4]
  DC50: ≤ 100 nM
[2]
  EC50: 120 nM
[2]; HTRF class, Cereblon binding
  EC50: 100 to 1000 nM

## CC(C)(C(=O)NCc1ccc(C2CCC(=O)NC2=O)c(Br)c1)c1ccc(F)cc1 (stereo not drawn) [Compound 64]
[1]; read-out: NEK7 NanoBiT Dmax
  Dmax: 86%
[1]; [3]
  Dmax: > 75%
[1]; read-out: NEK7 NanoBiT DC50
  DC50: 43 nM
[1]; [4]
  DC50: ≤ 100 nM
[2]
  EC50: 490 nM
[2]; HTRF class, Cereblon binding
  EC50: 100 to 1000 nM

## CC(C)(C(=O)NCc1cc(Cl)c(C2CCC(=O)NC2=O)c(Cl)c1)c1nccc(C(F)F)n1 (stereo not drawn) [Compound 182]
[1]; read-out: NEK7 NanoBiT Dmax
  Dmax: 72%
[1]; [3]
  Dmax: 50 to 75%
[1]; read-out: NEK7 NanoBiT DC50
  DC50: 54 nM
[1]; [4]
  DC50: ≤ 100 nM
[2]
  EC50: 200 nM
[2]; HTRF class, Cereblon binding
  EC50: 100 to 1000 nM

## CC(C)(C(=O)NCc1cc(Cl)c(C2CCC(=O)NC2=O)c(Cl)c1)c1nnc(C(F)F)o1 (stereo not drawn) [Compound 200]
[1]; read-out: NEK7 NanoBiT Dmax
  Dmax: 74%
[1]; [3]
  Dmax: 50 to 75%
[1]; read-out: NEK7 NanoBiT DC50
  DC50: 46 nM
[1]; [4]
  DC50: ≤ 100 nM
[2]
  EC50: 170 nM
[2]; HTRF class, Cereblon binding
  EC50: 100 to 1000 nM

## CC(C)(C(=O)NCc1cc(Cl)c(C2CCC(=O)NC2=O)c(Cl)c1)c1ccc(S(N)(=O)=O)c(F)c1 (stereo not drawn) [Compound 39, N-(3,5-dichloro-4-(2,6-dioxopiperidin-3-yl)benzyl)-2-(3-fluoro-4-sulfamoylphenyl)-2-methylpropanamide]
[1]; read-out: NEK7 NanoBiT Dmax
  Dmax: 97%
[1]; [3]
  Dmax: > 75%
[1]; read-out: NEK7 NanoBiT DC50
  DC50: 2 nM
[1]; [4]
  DC50: ≤ 100 nM
[2]
  EC50: 50 nM
[2]; HTRF class, Cereblon binding
  EC50: ≤ 100 nM

## CC(C)(C(=O)NCc1cc(F)c(C2CCC(=O)NC2=O)c(Cl)c1)c1ccccc1 (stereo not drawn) [Compound 31]
[1]; read-out: NEK7 NanoBiT Dmax
  Dmax: 93%
[1]; [3]
  Dmax: > 75%
[1]; read-out: NEK7 NanoBiT DC50
  DC50: 6 nM
[1]; [4]
  DC50: ≤ 100 nM
[2]
  EC50: 130 nM
[2]; HTRF class, Cereblon binding
  EC50: 100 to 1000 nM

## CCn1ccc(C(C)(C)C(=O)NCc2cc(Cl)c(C3CCC(=O)NC3=O)c(Cl)c2)cc1=O (stereo not drawn) [Compound 45]
[1]; read-out: NEK7 NanoBiT Dmax
  Dmax: 91%
[1]; [3]
  Dmax: > 75%
[1]; read-out: NEK7 NanoBiT DC50
  DC50: 13 nM
[1]; [4]
  DC50: ≤ 100 nM
[2]
  EC50: 530 nM
[2]; HTRF class, Cereblon binding
  EC50: 100 to 1000 nM

## CC(C)(C(=O)NCc1cc(Cl)c(C2CCC(=O)NC2=O)c(Cl)c1)C1CCCCC1 (stereo not drawn) [Compound 211]
[1]; read-out: NEK7 NanoBiT Dmax
  Dmax: 90%
[1]; [3]
  Dmax: > 75%
[1]; read-out: NEK7 NanoBiT DC50
  DC50: 8 nM
[1]; [4]
  DC50: ≤ 100 nM
[2]
  EC50: 900 nM
[2]; HTRF class, Cereblon binding
  EC50: 100 to 1000 nM

## CC(C)(C(=O)NCc1cc(Cl)c(C2CCC(=O)NC2=O)c(Cl)c1)c1cnc(OC(F)F)cn1 (stereo not drawn) [Compound 257]
[1]; read-out: NEK7 NanoBiT Dmax
  Dmax: 95%
[1]; [3]
  Dmax: > 75%
[1]; read-out: NEK7 NanoBiT DC50
  DC50: 1 nM
[1]; [4]
  DC50: ≤ 100 nM
[2]
  EC50: 50 nM
[2]; HTRF class, Cereblon binding
  EC50: ≤ 100 nM

## CC(C)(C(=O)NCc1cc(Cl)c(C2CCC(=O)NC2=O)c(Cl)c1)c1cccc(F)c1 (stereo not drawn) [Compound 27]
[1]; read-out: NEK7 NanoBiT Dmax
  Dmax: 96%
[1]; [3]
  Dmax: > 75%
[1]; read-out: NEK7 NanoBiT DC50
  DC50: 1 nM
[1]; [4]
  DC50: ≤ 100 nM
[2]
  EC50: 50 nM
[2]; HTRF class, Cereblon binding
  EC50: ≤ 100 nM

## CC(C)(C(=O)NCc1cc(F)c(C2CCC(=O)NC2=O)c(Cl)c1)c1ccc(OC(F)F)nc1 (stereo not drawn) [Compound 267]
[1]; read-out: NEK7 NanoBiT Dmax
  Dmax: 94%
[1]; [3]
  Dmax: > 75%
[1]; read-out: NEK7 NanoBiT DC50
  DC50: 3 nM
[1]; [4]
  DC50: ≤ 100 nM
[2]
  EC50: 110 nM
[2]; HTRF class, Cereblon binding
  EC50: 100 to 1000 nM

## Cc1ncc(C(C)(C)C(=O)NCc2cc(Cl)c(C3CCC(=O)NC3=O)c(Cl)c2)o1 (stereo not drawn) [Compound 282]
[1]; read-out: NEK7 NanoBiT Dmax
  Dmax: 78%
[1]; [3]
  Dmax: > 75%
[1]; read-out: NEK7 NanoBiT DC50
  DC50: 26 nM
[1]; [4]
  DC50: ≤ 100 nM
[2]
  EC50: 110 nM
[2]; HTRF class, Cereblon binding
  EC50: 100 to 1000 nM

## CC(C)(C(=O)NCc1cc(Cl)c(C2CCC(=O)NC2=O)c(Cl)c1)c1c(F)cncc1F (stereo not drawn) [Compound 68]
[1]; read-out: NEK7 NanoBiT Dmax
  Dmax: 97%
[1]; [3]
  Dmax: > 75%
[1]; read-out: NEK7 NanoBiT DC50
  DC50: 1 nM
[1]; [4]
  DC50: ≤ 100 nM
[2]
  EC50: 90 nM
[2]; HTRF class, Cereblon binding
  EC50: ≤ 100 nM

## CC(C)(C(=O)NCc1cc(Cl)c(C2CCC(=O)NC2=O)c(Cl)c1)c1ccncn1 (stereo not drawn) [Compound 19, N-(3,5-dichloro-4-(2,6-dioxopiperidin-3-yl)benzyl)-2-methyl-2-(pyrimidin-4-yl)propanamide]
[1]; read-out: NEK7 NanoBiT Dmax
  Dmax: 84%
[1]; [3]
  Dmax: > 75%
[1]; read-out: NEK7 NanoBiT DC50
  DC50: 23 nM
[1]; [4]
  DC50: ≤ 100 nM
[2]
  EC50: 140 nM
[2]; HTRF class, Cereblon binding
  EC50: 100 to 1000 nM

## Cc1cnc(C(C)(C)C(=O)NCc2cc(Cl)c([C@@H]3CCC(=O)NC3=O)c(Cl)c2)nc1 (single isomer, unassigned) [Compound 154]
[1]; read-out: NEK7 NanoBiT Dmax
  Dmax: 89%
[1]; [3]
  Dmax: > 75%
[1]; read-out: NEK7 NanoBiT DC50
  DC50: 4 nM
[1]; [4]
  DC50: ≤ 100 nM
[2]
  EC50: 180 nM
[2]; HTRF class, Cereblon binding
  EC50: 100 to 1000 nM

## CN(C)S(=O)(=O)c1ccc(C(C)(C)C(=O)NCc2cc(Cl)c(C3CCC(=O)NC3=O)c(Cl)c2)cc1 (stereo not drawn) [Compound 58]
[1]; read-out: NEK7 NanoBiT Dmax
  Dmax: 92%
[1]; [3]
  Dmax: > 75%
[1]; read-out: NEK7 NanoBiT DC50
  DC50: 6 nM
[1]; [4]
  DC50: ≤ 100 nM
[2]
  EC50: 130 nM
[2]; HTRF class, Cereblon binding
  EC50: 100 to 1000 nM

## CC1(C(=O)NCc2cc(Cl)c(C3CCC(=O)NC3=O)c(Cl)c2)COc2ccccc2O1 (stereo not drawn) [Compound 47]
[1]; read-out: NEK7 NanoBiT Dmax
  Dmax: 85%
[1]; [3]
  Dmax: > 75%
[1]; read-out: NEK7 NanoBiT DC50
  DC50: 4 nM
[1]; [4]
  DC50: ≤ 100 nM
[2]
  EC50: 30 nM
[2]; HTRF class, Cereblon binding
  EC50: ≤ 100 nM

## COc1ccc(C(C)(C)C(=O)NCc2cc(Cl)c(C3CCC(=O)NC3=O)c(Cl)c2)nn1 (stereo not drawn) [Compound 204]
[1]; read-out: NEK7 NanoBiT Dmax
  Dmax: 98%
[1]; [3]
  Dmax: > 75%
[1]; read-out: NEK7 NanoBiT DC50
  DC50: 1 nM
[1]; [4]
  DC50: ≤ 100 nM
[2]
  EC50: 80 nM
[2]; HTRF class, Cereblon binding
  EC50: ≤ 100 nM

Reference: patent US20250243180A1, “TARGETED PROTEIN DEGRADATION” (Monte Rosa Therapeutics AG, priority 2023, published 2025)
